System: HEK293T cells
Assay: Fluorescence imaging of RDP-1 and RDP-2 with HEK293T cells
Type: cell-based, human
Settings: for change in depalmitoylation activity from RDP-1: 10 μM inhibitor 30 min
Procedure: HEK293T were plated with […] of DMEM (Gibco, Gaithersburg, Md., United States of America; High Glucose, Glutamax, 10% FBS) a four well chambered imaging dish (D35C4-20-1.5-N, Cellvis, Mountain View, Calif., United States of America) which were precoated with 4 μg Poly-D-lysine (30-70 kilodalton (KDa), Alfa Aesar, Haverhill, Mass., United States of America) for 2 h at room temperature or overnight at 4° C. and grown to ca. 80% confluence prior to imaging. 30 min before the addition of the RDP, the cell culture media was removed and cells were washed with 500 μL of serum-free DMEM (Gibco, Gaithersburg, Md., United States of America, High Glucose, Glutamax, no FBS). The media was then replaced with 500 μL of serum-free DMEM containing 100 nM Mitotracker Deep Red (Thermo Fisher Scientific, Waltham, Mass., United States of America; to assist in focusing and processing) and either 0.1% DMSO carrier as a control or Palm B, ML348, or ML349 in DMSO and incubated for 30 min at 37° C. and 5% CO2. The media was removed, the cells were washed with 500 μL of Live Cell Imaging Solution (Thermo Fisher Scientific, Waltham, Mass., United States of America), and 500 μL of 1 μM RDP-1 or RDP-2 along with the appropriate inhibitor or DMSO as control in Live Cell Imaging Solution was added to each well. After incubation for 10 min at 37° C. and 5% CO2, the cells were washed with 500 μL Live Cell Imaging Solution and 500 μL of Live Cell Imaging Solution containing DMSO or the appropriate inhibitor was added to the cells immediately before images were obtained on an inverted epi-fluorescence microscope (Olympus IX83; Olympus Corporation, Tokyo, Japan) attached with EMCCD camera (Photometrics EVOLVE™ Delta; Photometrics, Tucson, Ariz., United States of America) with 40× oil objective (N/A 1.3) for RDP-1 (excitation filter 1 430/24 nm, dichroic chroma 89007, emission filter 1 470/24 nm, exposure time 100 ms, EM gain 80, excitation filter 2 480/20 nm, dichroic chroma 49014, emission filter 2 575/40 nm, exposure time 70 ms, EM gain 50) or for RDP-2 (excitation filter 1 430/24 nm, dichroic chroma 89007, emission filter 1 470/24 nm, exposure time 70 ms, EM gain 50, excitation filter 2 480/20, dichroic chroma 49014, emission filter 2 575/40 nm, exposure time 50 ms, EM gain 30), brightfield (exposure time 50 ms, EM gain 30), and MitoTracker Deep Red: (excitation filter 640/30 nm, emission filter 705/72 nm, dichroic chroma 89016, exposure time 15 ms, EM gain 15). Analyses were performed in ImageJ as described below. Each experiment was repeated at least three separate times with identical results.
The probe channel data were expressed as a ratio of the blue channel divided by the green channel and normalized to the average fluorescence intensity of the control conditions. To eliminate errors from autofluorescence, the images were thresholded using the bluer channel images at the same minimum level that included the maximum number of cells in focus (as determined visually by the mitocondrial dye) while limiting the signal from areas where cells are not present. The average value of all nonzero pixels from the blue channel:green channel ratio image were calculated in ImageJ for three different measurements from each experiment. The percent deprotected was estimated by imaging RDP-1/2 in buffer (20 mM HEPES, 150 mM NaCl, 0.1% Triton X-100, pH 7.4, 0.1% DMSO) and for dye deprotected with 20 mM DTT in buffer (20 mM HEPES, 150 mM NaCl, 0.1% Triton X-100, pH 7.4, 0.1% DMSO) for 1 h at room temperature before aliquoted into individual tubes and stored at −80° C. A fresh aliquot of the solution was thawed for each experiment and diluted to 250 nM (RDP-1) or 500 nM (RDP-2) in buffer (20 mM HEPES, 150 mM NaCl, 0.1% Triton X-100, pH 7.4, 10 mM DTT) and allowed to equilibrate for 30 m before being imaged. […]

COc1ccc(N2CCN(C(=O)c3cc4c(s3)-c3ccccc3S(=O)(=O)C4)CC2)cc1 [ML349]
increase in depalmitoylation activity, RDP-2 (5 μM ML349 30 min, 1 μM RDP-2): about 12% | change in depalmitoylation activity from RDP-1 (1 μM RDP-1): slight increase

O=C(CN1CCN(C(=O)c2ccco2)CC1)Nc1cc(C(F)(F)F)ccc1Cl [ML348]
decrease in depalmitoylation activity, RDP-2 (5 μM ML348 30 min, 1 μM RDP-2): about 30% | change in depalmitoylation activity from RDP-1 (1 μM RDP-1): slight increase

CCCCCCCCCC[C@@H]1C(=O)O[C@H]1CCc1ccc(OC)c(OC)c1 [PalmB, palmostatin B]
decrease of measured depalmitoylation activity, RDP-1 (20 μM PalmB 30 min pretreatment, 1 μM RDP-1): almost in half | decrease of measured depalmitoylation activity, RDP-2 (20 μM PalmB 30 min pretreatment, 1 μM RDP-2): almost in half
